Active and inactive are the calls of the source. No cut-off for these calls is given here.
Tests used:
Glucocorticoid receptor [1] = target: T1, Glucocorticoid receptor (Homo sapiens, UniProt P04150); test: Inhibition of antagonist activity towards glucocorticoid receptor; not active; type: functional
T1 sequence (P04150 whole entry): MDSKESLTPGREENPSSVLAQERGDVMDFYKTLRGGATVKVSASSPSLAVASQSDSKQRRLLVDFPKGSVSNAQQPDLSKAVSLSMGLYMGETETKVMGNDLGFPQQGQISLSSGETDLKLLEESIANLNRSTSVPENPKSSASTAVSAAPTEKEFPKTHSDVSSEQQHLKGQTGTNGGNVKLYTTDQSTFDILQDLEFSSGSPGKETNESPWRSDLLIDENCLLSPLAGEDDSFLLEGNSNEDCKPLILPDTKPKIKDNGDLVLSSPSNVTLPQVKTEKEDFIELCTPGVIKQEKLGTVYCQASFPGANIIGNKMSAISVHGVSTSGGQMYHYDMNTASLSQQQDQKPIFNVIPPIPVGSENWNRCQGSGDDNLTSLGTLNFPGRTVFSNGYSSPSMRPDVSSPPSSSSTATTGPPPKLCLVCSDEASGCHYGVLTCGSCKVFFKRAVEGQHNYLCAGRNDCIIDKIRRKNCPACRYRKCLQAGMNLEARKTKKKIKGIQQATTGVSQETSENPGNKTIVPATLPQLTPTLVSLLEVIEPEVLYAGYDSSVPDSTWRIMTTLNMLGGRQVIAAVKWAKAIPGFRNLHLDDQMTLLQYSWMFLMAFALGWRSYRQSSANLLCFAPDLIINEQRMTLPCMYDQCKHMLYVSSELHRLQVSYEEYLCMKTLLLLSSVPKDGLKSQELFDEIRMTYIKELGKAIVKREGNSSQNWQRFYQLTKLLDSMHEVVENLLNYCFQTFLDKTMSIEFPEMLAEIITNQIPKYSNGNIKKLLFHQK

[2] = target: T2, Glucocorticoid receptor (Homo sapiens) (UniProt P04150); test: Antagonist efficacy for glucocorticoid receptor; not active; type: functional
T2 sequence (whole entry): T1 sequence (P04150 whole entry)

[3] = target: T3, Androgen receptor (Homo sapiens) (UniProt P10275); test: Antagonist efficacy for human sndrogen receptor; type: functional
T3 sequence (whole entry): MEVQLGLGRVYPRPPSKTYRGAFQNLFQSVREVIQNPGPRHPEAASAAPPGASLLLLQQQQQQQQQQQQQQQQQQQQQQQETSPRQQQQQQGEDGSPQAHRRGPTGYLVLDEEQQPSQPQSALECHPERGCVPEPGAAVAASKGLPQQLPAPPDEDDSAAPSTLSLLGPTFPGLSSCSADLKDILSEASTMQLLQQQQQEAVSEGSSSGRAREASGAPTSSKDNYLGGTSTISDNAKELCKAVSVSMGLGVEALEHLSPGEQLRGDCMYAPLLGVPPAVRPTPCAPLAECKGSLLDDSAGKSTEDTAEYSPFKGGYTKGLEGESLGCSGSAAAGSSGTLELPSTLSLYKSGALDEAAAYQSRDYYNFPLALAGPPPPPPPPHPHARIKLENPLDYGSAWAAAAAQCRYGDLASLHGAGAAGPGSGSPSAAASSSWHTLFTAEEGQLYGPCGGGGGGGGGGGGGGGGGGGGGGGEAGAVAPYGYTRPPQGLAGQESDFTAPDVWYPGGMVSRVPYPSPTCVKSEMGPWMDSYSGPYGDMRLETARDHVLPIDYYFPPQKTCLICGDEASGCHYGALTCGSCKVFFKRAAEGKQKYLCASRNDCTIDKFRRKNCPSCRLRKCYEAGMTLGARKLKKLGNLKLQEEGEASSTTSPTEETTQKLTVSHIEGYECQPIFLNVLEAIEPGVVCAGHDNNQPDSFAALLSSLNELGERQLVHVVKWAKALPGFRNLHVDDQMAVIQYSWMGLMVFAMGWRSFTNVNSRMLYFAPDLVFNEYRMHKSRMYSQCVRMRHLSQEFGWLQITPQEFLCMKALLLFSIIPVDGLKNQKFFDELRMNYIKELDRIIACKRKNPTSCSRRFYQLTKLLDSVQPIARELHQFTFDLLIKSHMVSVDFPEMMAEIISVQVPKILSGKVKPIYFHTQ

Androgen receptor [4] = target: T4, Androgen receptor (Homo sapiens, UniProt P10275); test: Inhibition of antagonist activity towards human Androgen receptor; type: functional
T4 sequence (P10275 whole entry): T3 sequence (whole entry)

[5] = target: Estrogen receptor (Homo sapiens) (UniProt Q92731+P03372); test: Antagonist efficacy for estrogen (hER) receptor; Not active; type: functional
[6] = target: T2, Glucocorticoid receptor (Homo sapiens); test: Antagonist efficacy for glucocorticoid (hGR) receptor; type: functional
Progesterone receptor [7] = target: T5, Progesterone receptor (Homo sapiens, UniProt P06401); test: Effective concentration for antagonistic activity towards human progesterone in CV-1 cells; type: functional, cell-based
T5 sequence (P06401 whole entry): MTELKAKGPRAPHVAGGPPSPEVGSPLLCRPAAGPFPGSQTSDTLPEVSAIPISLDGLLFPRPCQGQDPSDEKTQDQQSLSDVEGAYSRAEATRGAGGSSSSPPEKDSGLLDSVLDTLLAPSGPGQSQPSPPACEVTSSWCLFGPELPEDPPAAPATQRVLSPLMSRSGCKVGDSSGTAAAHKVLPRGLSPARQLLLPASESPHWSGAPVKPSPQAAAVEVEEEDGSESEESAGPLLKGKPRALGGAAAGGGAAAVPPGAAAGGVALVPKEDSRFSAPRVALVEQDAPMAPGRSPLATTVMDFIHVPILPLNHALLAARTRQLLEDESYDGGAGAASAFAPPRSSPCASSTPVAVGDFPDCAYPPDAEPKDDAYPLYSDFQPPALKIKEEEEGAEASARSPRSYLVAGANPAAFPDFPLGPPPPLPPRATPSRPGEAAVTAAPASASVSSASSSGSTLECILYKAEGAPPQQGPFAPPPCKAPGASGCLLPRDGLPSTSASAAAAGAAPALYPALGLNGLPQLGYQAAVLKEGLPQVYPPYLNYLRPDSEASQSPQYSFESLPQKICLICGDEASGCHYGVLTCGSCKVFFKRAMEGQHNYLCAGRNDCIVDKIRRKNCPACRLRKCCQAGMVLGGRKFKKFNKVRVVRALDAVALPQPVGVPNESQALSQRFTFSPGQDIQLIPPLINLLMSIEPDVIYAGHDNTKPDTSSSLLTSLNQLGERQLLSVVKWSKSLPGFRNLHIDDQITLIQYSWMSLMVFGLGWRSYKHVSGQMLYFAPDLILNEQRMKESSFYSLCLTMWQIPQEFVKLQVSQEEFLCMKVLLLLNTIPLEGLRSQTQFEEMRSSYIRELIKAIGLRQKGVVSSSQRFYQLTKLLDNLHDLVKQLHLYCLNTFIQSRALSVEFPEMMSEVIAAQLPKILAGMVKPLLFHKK

[8] = target: T6, Progesterone receptor (Homo sapiens) (UniProt P06401); test: Agonist efficacy for human progesterone in T47D human breast cancer cell; type: functional, cell-based
T6 sequence (whole entry): T5 sequence (P06401 whole entry)

[9] = target: T6, Progesterone receptor (Homo sapiens); test: Antagonist efficacy for human progesterone in CV-1 cells; type: functional, cell-based
[10] = target: T6, Progesterone receptor (Homo sapiens); test: Antagonist efficacy for human progesterone in T47D human breast cancer cell; type: functional, cell-based
Progesterone receptor [11] = target: T5, Progesterone receptor; test: Binding towards human progesterone receptor
Glucocorticoid receptor [12] = target: T1, Glucocorticoid receptor; test: Inhibition of antagonist activity towards glucocorticoid receptor; type: functional
Androgen receptor [13] = target: T4, Androgen receptor
Description: Inhibition of antagonist activity towards Androgen receptor

[14] = target: T2, Glucocorticoid receptor (Homo sapiens); test: Antagonist efficiency for glucocorticoid (hGR) receptor; type: functional

Structure (SMILES) | Efficacy [3] | IC50 (Androgen receptor [4]) | Efficacy [5] | EC50 (Progesterone receptor [7]) | Efficacy [9] | Ki (Progesterone receptor [11]) | IC50 (Glucocorticoid receptor [12]) | IC50 (Androgen receptor [13]) | further results
CC1CC(C)(C)Nc2ccc3c(c21)COc1c(F)cc(F)cc1-3 (configuration not stated) | – | – | – | – | – | – | – | – | IC50 (Glucocorticoid receptor [1]): Not Active; Efficacy [2]: inactive
CC1=CC(C)(C)Nc2ccc3c(c21)COc1c(F)cc(Br)cc1-3 | – | – | – | – | – | – | 2170 nM | 90 nM | –
CC1CC(C)(C)Nc2ccc3c(c21)COc1ccc([N+](=O)[O-])cc1-3 (configuration not stated) | – | – | – | – | – | – | 1870 nM | 63 nM | –

Continued, in another order:

Efficacy [3] | IC50 (Androgen receptor [4]) | Efficacy [5] | EC50 (Progesterone receptor [7]) | Efficacy [9] | Ki (Progesterone receptor [11]) | Structure (SMILES) | IC50 (Glucocorticoid receptor [12]) | IC50 (Androgen receptor [13]) | further results
87% | 644 nM | inactive | 25.4 nM | 83% | 13.5 nM | CC1=CC(C)(C)Nc2ccc3c(c21)COc1c(F)cc(F)cc1-3 | – | – | Efficacy [6]: 57%; Efficacy [8]: 42%; Efficacy [10]: 52%
79% | 428 nM | inactive | 13.5 nM | 74% | 5.6 nM | CC1=CC(C)(C)Nc2ccc3c(c21)COc1c(F)cc(Cl)cc1-3 | – | – | Efficacy [14]: 95%

— ChEMBL document CHEMBL1144945, “Development of progesterone receptor antagonists from 1,2-dihydrochromeno[3,4-f]quinoline agonist pharmacophore” (Bioorg Med Chem Lett, 2003)
